Reference: patent US11191820B2, “Method for inducing early T memory response with short peptides anti-tumor vaccine” (OSE IMMUNOTHERAPEUTICS, priority 2015, dated 2021)
Like-named read-outs stand apart in the source and are kept apart here.

Legend:
advanced NSCLC = details: cited from earlier work
central memory T cells [1] = assay: Central memory T cell cultured ELISPOT, phase 2 trial in advanced NSCLC; format: in vivo, human
How it was run: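 Patient PBMC were pre-stimulated for 10 days with 10 μg/ml peptide plus rIL2 (10 U/ml, days 1, 4, 7), then replated at 5×10^4/well with irradiated autologous PBMC and 10 μg/ml peptide, and SFC were counted. A response was positive if >5 SFC above, and > mean+2 SD of, the irrelevant HBV epitope, and twofold the pre-vaccination response plus 2 SD.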

central memory T cells [2] = assay: Cultured IFN-γ ELISPOT after 10-day in vitro stimulation of PBMC, phase 1/2 NSCLC trial of OSE-2101; format: in vivo, human; set-up: key to net SFC of vaccine positive CTL responses: —, indicates SFC response did not meet criteria and vaccine response was negative; details: for Mean SFC / No. Positive Responses: 6 NSCLC patients
How it was run: (§1)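 Patient PBMC (pre-treatment, Week 9, Week 18, after s.c. dosing every 3 weeks) were stimulated 10 days with 10 μg/ml of each epitope plus rIL-2 10 U/ml on days 1, 4 and 7. Cells were then tested 20 h with irradiated autologous PBMC and 10 μg/ml vaccine or wild-type peptide. Net SFC per 5×10^4 cells, irrelevant HBV peptide subtracted.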

central memory T cells [3] = assay: Cultured IFN-γ ELISPOT after 10-day in vitro stimulation of PBMC, phase 1/2 colon cancer trial of OSE-2101; format: in vivo, human; set-up: key to net SFC of vaccine positive CTL responses: —, indicates SFC response did not meet criteria and vaccine response was negative; details: for Mean SFC: 10 colon patients
How it was run: as §1

C#Cc1cccc(Nc2ncnc3cc(OCCOC)c(OCCOC)cc23)c1 [Erlotinib]
Progression-Free Survival (PFS) (advanced NSCLC; advanced NSCLC after at least first line failure (Shepherd 2005)): 2.2 months

Nc1nc2[nH]cc(CCc3ccc(C(=O)N[C@@H](CCC(=O)O)C(=O)O)cc3)c2c(=O)[nH]1 [pemetrexed]
median PFS (advanced NSCLC; phase 3, second line NSCLC (Bareschino 2011)): 2.9 months

YLSGADLNL [CEA.605D6 A]
% of patients with positive CTL/central memory T cell response (central memory T cells [1]; phase 2, month 9): 14%
patients with positive CTL/central memory T cell response / patients tested (central memory T cells [1]; phase 2, month 9): 1/7
% of patients with positive CTL/central memory T cell response (central memory T cells [1]; phase 2, month 12): 25%
patients with positive CTL/central memory T cell response / patients tested (central memory T cells [1]; phase 2, month 12): 1/4
% of patients with positive CTL/central memory T cell response (central memory T cells [1]; phase 2, week 9): 27%
patients with positive CTL/central memory T cell response / patients tested (central memory T cells [1]; phase 2, week 9): 9/33
% of patients with positive CTL/central memory T cell response (central memory T cells [1]; phase 2, week 18): 31%
patients with positive CTL/central memory T cell response / patients tested (central memory T cells [1]; phase 2, week 18): 10/32
% of patients with positive CTL/central memory T cell response (central memory T cells [1]; phase 2, week 30): 35%
patients with positive CTL/central memory T cell response / patients tested (central memory T cells [1]; phase 2, week 30): 8/23
Mean SFC (central memory T cells [2]; Week 9): 20.7 SFC per 50,000 cells
No. Positive Responses (central memory T cells [2]; Week 9): 1
Mean SFC (central memory T cells [2]; Week 18): 137.5 SFC per 50,000 cells
No. Positive Responses (central memory T cells [2]; Week 18): 2
net SFC of vaccine positive CTL responses (central memory T cells [2]; NSCLC patient 201, Week 9): —
net SFC of vaccine positive CTL responses (central memory T cells [2]; NSCLC patient 201, Week 18): —
net SFC of vaccine positive CTL responses (central memory T cells [2]; NSCLC patient 502, Week 9): —
net SFC of vaccine positive CTL responses (central memory T cells [2]; NSCLC patient 502, Week 18): —
net SFC of vaccine positive CTL responses (central memory T cells [2]; NSCLC patient 504, Week 9): 20.7 SFC per 50,000 cells
net SFC of vaccine positive CTL responses (central memory T cells [2]; NSCLC patient 504, Week 18): 214.3 SFC per 50,000 cells
net SFC of vaccine positive CTL responses (central memory T cells [2]; NSCLC patient 505, Week 9): —
net SFC of vaccine positive CTL responses (central memory T cells [2]; NSCLC patient 505, Week 18): 60.7 SFC per 50,000 cells
net SFC of vaccine positive CTL responses (central memory T cells [2]; NSCLC patient 532, Week 9): —
net SFC of vaccine positive CTL responses (central memory T cells [2]; NSCLC patient 532, Week 18): —
net SFC of vaccine positive CTL responses (central memory T cells [2]; NSCLC patient 651, Week 9): —
net SFC of vaccine positive CTL responses (central memory T cells [2]; NSCLC patient 651, Week 18): —
Mean SFC (central memory T cells [3]; Week 9): 84.2 SFC per 50,000 cells
Mean SFC (central memory T cells [3]; Week 18): 283.3 SFC per 50,000 cells
net SFC of vaccine positive CTL responses (central memory T cells [3]; colon patient 551, Week 9): —
net SFC of vaccine positive CTL responses (central memory T cells [3]; colon patient 551, Week 18): —
net SFC of vaccine positive CTL responses (central memory T cells [3]; colon patient 601, Week 9): 88.3 SFC per 50,000 cells
net SFC of vaccine positive CTL responses (central memory T cells [3]; colon patient 601, Week 18): —
net SFC of vaccine positive CTL responses (central memory T cells [3]; colon patient 602, Week 9): —
net SFC of vaccine positive CTL responses (central memory T cells [3]; colon patient 602, Week 18): —
net SFC of vaccine positive CTL responses (central memory T cells [3]; colon patient 603, Week 9): 114.7 SFC per 50,000 cells
net SFC of vaccine positive CTL responses (central memory T cells [3]; colon patient 603, Week 18): —
net SFC of vaccine positive CTL responses (central memory T cells [3]; colon patient 604, Week 9): 70.0 SFC per 50,000 cells
net SFC of vaccine positive CTL responses (central memory T cells [3]; colon patient 604, Week 18): 413.3 SFC per 50,000 cells
net SFC of vaccine positive CTL responses (central memory T cells [3]; colon patient 605, Week 9): —
net SFC of vaccine positive CTL responses (central memory T cells [3]; colon patient 605, Week 18): —
net SFC of vaccine positive CTL responses (central memory T cells [3]; colon patient 606, Week 9): —
net SFC of vaccine positive CTL responses (central memory T cells [3]; colon patient 606, Week 18): —
net SFC of vaccine positive CTL responses (central memory T cells [3]; colon patient 607, Week 9): 72.7 SFC per 50,000 cells
net SFC of vaccine positive CTL responses (central memory T cells [3]; colon patient 607, Week 18): 414.7 SFC per 50,000 cells
net SFC of vaccine positive CTL responses (central memory T cells [3]; colon patient 608, Week 9): —
net SFC of vaccine positive CTL responses (central memory T cells [3]; colon patient 608, Week 18): —
net SFC of vaccine positive CTL responses (central memory T cells [3]; colon patient 609, Week 9): 75.3 SFC per 50,000 cells
net SFC of vaccine positive CTL responses (central memory T cells [3]; colon patient 609, Week 18): 22.0 SFC per 50,000 cells

nivolumab
median PFS (advanced NSCLC; phase 3 study in squamous NSCLC (Brahmer 2015)): 3.5 months
